One series has as its target T1, Interstitial collagenase (Homo sapiens, UniProt P03956).
T1 sequence (P03956 whole entry): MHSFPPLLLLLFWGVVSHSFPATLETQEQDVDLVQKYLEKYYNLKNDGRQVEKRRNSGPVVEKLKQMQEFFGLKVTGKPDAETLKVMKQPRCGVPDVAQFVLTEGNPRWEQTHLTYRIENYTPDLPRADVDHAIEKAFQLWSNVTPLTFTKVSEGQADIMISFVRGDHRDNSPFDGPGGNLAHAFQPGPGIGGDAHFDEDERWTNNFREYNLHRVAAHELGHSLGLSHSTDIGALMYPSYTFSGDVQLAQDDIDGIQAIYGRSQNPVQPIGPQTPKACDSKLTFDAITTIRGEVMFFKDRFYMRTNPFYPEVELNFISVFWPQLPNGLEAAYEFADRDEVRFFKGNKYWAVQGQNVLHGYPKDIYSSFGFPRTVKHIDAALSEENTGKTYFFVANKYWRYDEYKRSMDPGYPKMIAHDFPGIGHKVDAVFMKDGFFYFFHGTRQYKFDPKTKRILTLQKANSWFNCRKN
Description: In vitro inhibitory activity against matrix metalloprotease 1 isolated from the culture medium of human skin fibroblasts induced with PMA.

For series [1], the target named is T2, 72 kDa type IV collagenase (Homo sapiens, UniProt P08253). Description: In vitro inhibitory activity against matrix metalloprotease 2 isolated from human HT1080 fibrosarcoma cells induced with TNF.
T2 sequence (P08253 whole entry): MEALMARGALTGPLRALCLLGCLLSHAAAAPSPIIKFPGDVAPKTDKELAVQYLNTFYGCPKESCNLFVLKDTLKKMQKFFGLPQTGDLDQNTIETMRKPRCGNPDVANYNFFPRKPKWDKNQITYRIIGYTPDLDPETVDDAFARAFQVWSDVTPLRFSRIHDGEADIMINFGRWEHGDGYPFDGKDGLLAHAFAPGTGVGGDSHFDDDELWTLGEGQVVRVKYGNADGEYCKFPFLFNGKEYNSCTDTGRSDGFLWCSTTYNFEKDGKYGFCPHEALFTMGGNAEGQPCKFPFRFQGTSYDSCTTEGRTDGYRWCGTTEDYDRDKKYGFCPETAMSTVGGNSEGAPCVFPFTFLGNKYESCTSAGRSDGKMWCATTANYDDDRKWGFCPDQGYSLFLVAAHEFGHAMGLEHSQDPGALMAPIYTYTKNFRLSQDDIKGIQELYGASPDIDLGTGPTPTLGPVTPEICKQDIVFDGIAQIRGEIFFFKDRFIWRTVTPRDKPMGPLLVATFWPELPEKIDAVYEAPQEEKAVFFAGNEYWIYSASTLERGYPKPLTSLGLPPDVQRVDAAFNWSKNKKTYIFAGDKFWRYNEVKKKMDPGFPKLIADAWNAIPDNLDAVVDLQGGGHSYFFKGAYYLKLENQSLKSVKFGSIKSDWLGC
Series [2] addresses T3, Stromelysin-1 (Homo sapiens, UniProt P08254). Description: In vitro inhibitory activity against human recombinant matrix metalloprotease 3.
The target in a further series is T4, Matrilysin (Homo sapiens, UniProt P09237).
T4 sequence (P09237 whole entry): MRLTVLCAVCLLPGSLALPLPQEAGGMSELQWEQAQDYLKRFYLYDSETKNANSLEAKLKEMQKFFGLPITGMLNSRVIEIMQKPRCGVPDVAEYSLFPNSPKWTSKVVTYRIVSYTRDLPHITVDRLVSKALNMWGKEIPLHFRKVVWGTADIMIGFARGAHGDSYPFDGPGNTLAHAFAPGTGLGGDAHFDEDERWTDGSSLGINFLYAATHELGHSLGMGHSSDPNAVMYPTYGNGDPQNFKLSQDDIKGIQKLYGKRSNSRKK
Description: In vitro inhibitory activity against human recombinant matrix metalloprotease 7.

The nature of series [3]: Oral bioavailability in monkey (dose 10 mg/kg). The format is ADME, organism-based. Particulars: primates, in vivo.
The nature of series [4]: Half life was measured in monkey at dose of 10 mg/kg by po administration. The format is ADME, organism-based. On the set-up: dose 10 mg/kg, route oral. Particulars: primates, in vivo.
The target in series [5] is T2, 72 kDa type IV collagenase. Description: Inhibition of matrix metalloprotease 2 (MMP2) of human HT1080 fibrosarcoma cells induced with TNF.
In series [6] the target is T3, Stromelysin-1. The series is described as follows: Inhibition of human recombinant matrix metalloprotease 3 (MMP3).
Series [7] can be described thus: Bioavailability in rat after po administration of 30 mg/kg dose. The format is ADME, organism-based. Conditions: in vivo.
The nature of series [8]: Half life was measured in rat at dose of 30 mg/kg by iv administration. On the set-up: dose 30 mg/kg, route intravenous. Conditions: in vivo. The series is classed as ADME, organism-based.
Series [9] is described as follows: Bioavailability in monkey after po administration of 10 mg/kg dose. Particulars: primates, in vivo. The series is classed as ADME, organism-based.
The nature of series [10]: Half life was measured in rat at dose of 30 mg/kg by po administration. The format is ADME, organism-based. The arrangement: dose 30 mg/kg, route oral. Particulars: in vivo.

As a reminder, the IC50 is the concentration needed to halve the response being measured. What is called bioavailability is dose-corrected exposure relative to a reference, in per cent. The half-life is the time in which the quantity being followed falls by half.

T3 sequence (P08254 whole entry): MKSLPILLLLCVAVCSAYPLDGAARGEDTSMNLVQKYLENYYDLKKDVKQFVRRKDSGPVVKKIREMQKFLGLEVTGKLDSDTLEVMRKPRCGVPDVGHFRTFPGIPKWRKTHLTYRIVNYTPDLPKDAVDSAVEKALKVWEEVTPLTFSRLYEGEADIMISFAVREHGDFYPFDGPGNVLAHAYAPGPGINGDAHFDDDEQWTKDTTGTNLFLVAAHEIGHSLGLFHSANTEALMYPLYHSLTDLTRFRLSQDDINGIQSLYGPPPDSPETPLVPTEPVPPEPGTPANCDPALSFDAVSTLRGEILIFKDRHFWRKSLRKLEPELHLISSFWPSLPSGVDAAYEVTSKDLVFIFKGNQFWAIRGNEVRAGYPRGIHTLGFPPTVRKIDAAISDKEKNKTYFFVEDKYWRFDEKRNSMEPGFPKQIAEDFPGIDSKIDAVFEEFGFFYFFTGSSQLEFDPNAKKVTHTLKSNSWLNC

Take `CC(C)C[C@H]1C(=O)N[C@H](C(=O)c2ccc(S(C)(=O)=O)cc2)Cc2ccc(cc2)OCCCC[C@@H]1C(=O)NO`: the IC50 on Interstitial collagenase worked out at 60 nM; in [1] it was 8.5 nM; on Stromelysin-1 [2] it was 9.8 nM; at Matrilysin, 5.7 nM.

For the compound `CC(C)C[C@H]1C(=O)N[C@H](C(=O)c2ccccc2)Cc2ccc(cc2)OCCCCC[C@@H]1C(=O)NO`, the IC50 on Interstitial collagenase turned out to be 9.1 nM; in series [1], 3.9 nM; at Matrilysin, 2.2 nM.

As for `CC(C)C[C@H]1C(=O)N[C@H](C(=O)c2ccc[nH]2)Cc2ccc(cc2)OCCCC[C@@H]1C(=O)NO`, the IC50 came out at 1.9 nM against Interstitial collagenase, 7.2 nM in [1], 7.2 nM on Stromelysin-1 [2] and 4.2 nM at Matrilysin.

In the case of `CC(C)C[C@H](CC(=O)NO)C(=O)N[C@@H](Cc1ccccc1)C(=O)c1c[nH]c2ccccc12`, the IC50 is 5.1 nM on Interstitial collagenase, 1 nM in series [1] and 4.3 nM on Matrilysin.

`CC(C)C[C@H]1C(=O)N[C@H](C(=O)c2ccc(C(C)(C)C)cc2)Cc2ccc(cc2)OCCCC[C@@H]1C(=O)NO`: the IC50 is 270 nM at Interstitial collagenase, 91 nM in series [1], 110 nM at Stromelysin-1 [2] and 40 nM at Matrilysin.

As for `CC(C)C[C@H]1C(=O)N[C@H](C(=O)c2c[nH]c3ccccc23)Cc2ccc(cc2)OCCCCC[C@@H]1C(=O)NO`, the IC50 against Interstitial collagenase came to 4.8 nM; in series [1], 6.1 nM; on Stromelysin-1 [2], 5.1 nM; at Matrilysin, 3.1 nM.

`CC(C)C[C@H]1C(=O)N[C@H](C(=O)c2ccccc2)Cc2ccc(cc2)OCCCC[C@@H]1C(=O)NO` gave a bioavailability in series [3] of 33%. Also, the half-life in [4] is 15 h. Besides, the IC50 is 13 nM against Interstitial collagenase, 9.5 nM in series [1], 8.9 nM on Stromelysin-1 [2] and 3.3 nM on Matrilysin.

On to `CC(C)C[C@H]1C(=O)N[C@H](C(=O)c2ccc(CO)cc2)Cc2ccc(cc2)OCCCC[C@@H]1C(=O)NO`, for which the IC50 worked out at 5 nM at Interstitial collagenase, 5.1 nM in [1], 3.4 nM on Stromelysin-1 [2] and 1.5 nM at Matrilysin.

On to `CNC(=O)[C@@H]1Cc2ccc(cc2)OCCCC[C@H](C(=O)NO)[C@@H](CC(C)C)C(=O)N1`, for which the IC50 in series [1] came to 5.6 nM; on Stromelysin-1 [2], 4 nM.

Take `CNC(=O)[C@@H]1Cc2ccc(cc2)OCCCCC[C@H](C(=O)NO)[C@@H](CC(C)C)C(=O)N1`: the values for the IC50 on Stromelysin-1 [2] and on Matrilysin were 2.6 nM and 6.1 nM, respectively.

With `C=CCC(C(=O)NO)C(CC(C)C)C(=O)N[C@@H](Cc1ccccc1)C(=O)c1nc2ccccc2[nH]1` (single isomer, unassigned), the IC50 is 180 nM at Interstitial collagenase, 110 nM in [1], 54 nM on Stromelysin-1 [2] and 68 nM at Matrilysin.

Turning to `C=CCC(C(=O)NO)C(CC(C)C)C(=O)N[C@@H](Cc1ccccc1)C(=O)c1cccnc1` (single isomer, unassigned), the IC50 against Interstitial collagenase came out at 14 nM; in [1], 8.6 nM; on Stromelysin-1 [2] it was 10 nM; at Matrilysin, 8.6 nM.

For the compound `C=CCC(C(=O)NO)C(CC(C)C)C(=O)N[C@@H](Cc1ccccc1)C(=O)CC` (single isomer, unassigned), the IC50 came out at 40 nM at Interstitial collagenase, 33 nM in [1], 82 nM at Stromelysin-1 [2] and 39 nM at Matrilysin.

Take `C=CCC(C(=O)NO)C(CC(C)C)C(=O)N[C@@H](Cc1ccccc1)C(=O)c1nccs1` (single isomer, unassigned): the IC50 in series [5] amounted to 1100 nM; at Stromelysin-1 [6] it was 360 nM; on Matrilysin it was 220 nM.

As for `C=CCC(C(=O)NO)C(CC(C)C)C(=O)N[C@@H](Cc1ccccc1)C(C)=O` (single isomer, unassigned), the IC50 in series [1] was 22 nM; on Matrilysin it was 45 nM.

Take `C=CCC(C(=O)NO)C(CC(C)C)C(=O)N[C@@H](Cc1ccccc1)C(=O)c1cn(C)c2ccccc12` (single isomer, unassigned): the IC50 was determined as 4.7 nM on Interstitial collagenase, 23 nM in series [1], 36 nM on Stromelysin-1 [2] and 29 nM at Matrilysin.

Turning to `C=CCC(C(=O)NO)C(CC(C)C)C(=O)N[C@@H](Cc1ccccc1)C(=O)c1ccccc1` (single isomer, unassigned), the IC50 turned out to be 10 nM at Interstitial collagenase, 3.4 nM in series [1] and 3.6 nM on Matrilysin.

`C=CCC(C(=O)NO)C(CC(C)C)C(=O)N[C@H](C(=O)c1c[nH]c2ccccc12)C(C)(C)C` (single isomer, unassigned): the IC50 against Interstitial collagenase is 1.2 nM; in series [1] it was 1.6 nM; at Matrilysin, 0.78 nM.

The compound `CNC(=O)[C@@H](NC(=O)C(CC(C)C)C(O)C(=O)NO)C(C)(C)C` (single isomer, unassigned) showed a bioavailability in [3] of 15%. The same compound had a half-life in [4] of 27 h.

In the case of `CC(C)CC(C(=O)N[C@H](C(=O)c1c[nH]c2ccccc12)C(C)(C)C)C(O)C(=O)NO` (single isomer, unassigned), in series [3], the bioavailability is 10%. Further, in series [4], the half-life was 12 h. For the same compound, the concentration for half-maximal inhibition (IC50) against Interstitial collagenase came out at 0.26 nM; in series [1], 0.38 nM; on Matrilysin, 0.3 nM.

On to `C=CCC(C(=O)NO)C(CC(C)C)C(=O)N[C@@H](Cc1ccccc1)C(=O)c1ccc[nH]1` (single isomer, unassigned), for which the IC50 stood at 2.6 nM against Interstitial collagenase, 1.1 nM in series [1] and 1.2 nM on Matrilysin.

Regarding `C=CCC(C(=O)NO)C(CC(C)C)C(=O)N[C@@H](Cc1ccccc1)C(=O)c1cc[nH]c1` (single isomer, unassigned), the 50% inhibitory concentration (IC50) at Interstitial collagenase amounted to 6.2 nM; in [1], 2.7 nM; at Stromelysin-1 [2] it was 6.6 nM; on Matrilysin, 8 nM.

Consider `C=CCC(C(=O)NO)C(CC(C)C)C(=O)N[C@@H](Cc1ccccc1)C(=O)c1cccs1` (single isomer, unassigned), for which the 50% inhibitory concentration (IC50) stood at 6.5 nM in [1], 3.2 nM at Stromelysin-1 [2] and 13 nM at Matrilysin.

`C=CCC(C(=O)NO)C(CC(C)C)C(=O)N[C@@H](Cc1ccccc1)C(=O)c1ncco1` (single isomer, unassigned): the IC50 against Interstitial collagenase came out at 2.7 nM; in [1], 7.2 nM; on Stromelysin-1 [2] it was 1.8 nM; at Matrilysin, 4.2 nM.

As for `C=CCC(C(=O)NO)C(CC(C)C)C(=O)N[C@@H](Cc1ccccc1)C(=O)NC` (single isomer, unassigned), in series [7], the bioavailability turned out to be 0%. Besides, the half-life in series [8] was 0.35 h. Besides, on Matrilysin, the 50% inhibitory concentration (IC50) is 11 nM.

`CC(C)CC(C(=O)N[C@@H](Cc1ccccc1)C(=O)c1c[nH]c2ccccc12)C(O)C(=O)NO` (single isomer, unassigned): the IC50 against Interstitial collagenase was 5 nM; in series [1], 0.6 nM; at Matrilysin, 1.1 nM.

For the compound `C=CCC(C(=O)NO)C(CC(C)C)C(=O)N[C@@H](Cc1ccccc1)C(=O)c1c[nH]c2ccccc12` (single isomer, unassigned), the bioavailability in series [9] was determined as 12%; in [7], 7%. In addition, the half-life in [4] is 20 h; in series [10], 1.45 h.

For the compound `CNC(=O)[C@H](Cc1ccccc1)NC(=O)[C@H](CC(C)C)[C@H](CSc1cccs1)C(=O)NO` [BATIMASTAT], at Matrilysin, the IC50 came out at 2.4 nM.
